Patent US20250235531A1, “MUCOSAL ADMINISTRATION METHODS AND FORMULATIONS” (priority 2022, published 2025)

Assays:
HeLa = test: Protein expression in human cervical cancer epithelial cell (HeLa) model, NPI-Luc mRNA LNPs; assay type: cell-based; details: LNP core Compound 18, DSPC
Experimental: NPI-Luc is a dual read reporter made by adding a 5×V5 tag and a C-myc nuclear localization sequence at the N-terminus of Firefly Luciferase to enhance the signal to noise ratio. Protein expression can be detected using OneGLo assays with luminescence readout or by immunofluorescence with anti-V5 antibodies. Protein expression was evaluated according to the procedure outlined in Example 6. The LNPs are dosed in 4 wells and the average response was reported. For the HeLa assay the luminescence read (RLU) were normalized to cell counts.

[1] = Nanoparticle zeta potential (Malvern Zetasizer); assay type: physicochemical; details: [mRNA] 0.01 mg/mL in 0.1×PBS, core LNP Compound 18, DSPC, Cholesterol, and DMG-PEG 2K
Experimental: LNPs were prepared according to Example 1. Zeta potential was measured by diluting LNPs to [mRNA]0.01 mg/mL in 0.1×PBS on a Malvern Zetasizer (Nano ZS).

[2] = tested on: respiratory epithelium (trachea, bronchi); test: LNP protein expression in mouse respiratory epithelium after single intratracheal dose (anti-V5 IHC); details: intratracheal ~0.7 mpk, NPI-Luc mRNA, LNP core Compound 18, DSPC, Cholesterol, and DMG-PEG 2K
Experimental: (§1) Animals are anesthetized under isoflurane. The tongue is displaced and a small diameter cannula is inserted into the trachea (oropharyngeal route). The cannula tip is passed through the vocal chords, down the trachea so that the tip is very near, but not touching, the carina. Upon placement, 50 μL (mouse) or 200 μL (rat) of formulation is infused into the lungs. After 30 seconds upright, animads are released into a recovery cage and returned to their respective cages once recovered.
(§2) Trachea, lungs and for the aerosol study nasal cavities, nasopharynx and larynx are collected for analysis. Lungs are inflated with 10% NBF fixative and trachea tied off to maintain inflation. Lungs are removed en bloc with attached trachea, bronchi and lobes. […]
(§3) IHC was performed on FFPE sections using the Leica Bond RX autostainer. NPI-Luc protein expression was detected by anti-V5 tag antibody at a 1:100 dilution. V5 antibody was detected with the Bond Polymer Refine Detection kit followed by hematoxylin and bluing reagent counterstain. […] Trachea, lung and/or nasal cavity images were analyzed to capture total tracheal, bronchial or nasal epithelial cells and data expressed when appropriate as % V5 positive epithelial cells per total epithelial cells per animal. […]

[3] = tested on: respiratory epithelium (trachea, bronchi); test: LNP protein expression in rat respiratory epithelium after single intratracheal dose (anti-V5 IHC); details: intratracheal ~1.2 mpk, NPI-Luc mRNA, LNP core Compound 18, DSPC, Cholesterol, and DMG-PEG 2K
Experimental: as §1, §2, §3

healthy HBE cells = test: LNP cellular uptake and protein expression in healthy HBE cells; assay type: cell-based, human; details: NPI-Luc mRNA, LNP core Compound 18, DSPC, Cholesterol, and DMG-PEG 2K
Experimental: NP-Luc is a dual read reporter made by adding a 5×V5 tag and a C-myc nuclear localization sequence at the N-terminus of Firefly Luciferase to enhance the signal to noise ratio. Protein expression can be detected using OneGLo assays with luminescence readout or by immunofluorescence with anti-V antibodies. LNP cellular uptake and protein expression was evaluated according to the procedure outlined in Example 5.

[4] = Luciferase mRNA nanoparticle biophysical data (DLS diameter and PDI, Ribogreen encapsulation); assay type: physicochemical; details: luciferase mRNA nanoparticles (IL1:DSPC:cholesterol:PEG-DMG-2K) modified with the lipid amine; for Diameter (nm) / PDI: DLS; for % Encapsulation (Ribogreen): Ribogreen assay
Experimental: Lipids are dissolved in ethanol at a concentration of 24 mg/mL and molar ratios of 49.0:11.2:39.3:0.5 (IL1:DSPC:cholesterol:PEG-DMG-2K) and mixed with the acidification buffer (45 mM acetate buffer at pH 4). The lipid solution and acidification buffer are mixed using a multi-inlet vortex mixer at a 3:7 volumetric ratio of lipid:buffer for mixer 1 and mixer 2 and a 1:3 volumetric ratio of lipid:buffer (25% ethanol) for mixer 3. After a 5 second residence time, the resulting nanoparticles are mixed with 55 mM sodium acetate at pH 5.6 at a volumetric ratio of 5:7 of nanoparticle:buffer. See Table 24 for mixing parameters. The resulting dilute nanoparticles are then buffer exchanged and concentrated using tangential flow filtration (TFF) into a final buffer containing 5 mM sodium acetate pH 5.0. Then a 70% sucrose solution in 5 mM acetate buffer at pH 5 is subsequently added.
The resulting nanoparticles at a lipid concentration of 7.33 mg/mL in 5 mM acetate (pH 5) and 75 g/L sucrose are mixed with mRNA (luciferease) at a concentration of 0.625 mg/mL in 42.5 mM sodium acetate pH 5.0, with N:P of 4.93. The nanoparticle solution and nanoparticles are mixed using a multi-inlet vortex mixer at a 3:2 volumetric ratio of nanoparticle:mRNA. Once loaded with mRNA, these intermediate nanoparticles undergo a 300 second residence time prior addition of neutralization buffer containing 120 mM TRIS pH 8.12 at a volumetric ratio of 5:1 of nanoparticle:buffer.
For HeLa studies evaluating luciferase protein expression, PEG-DMG-2K dissolved in a 20 mM TRIS buffer (pH 7.5) is added to the neutralized intermediate nanoparticle solution at a ratio of 1:6, bringing the solution to the final molar ratios of IL1:DSPC:cholesterol:PEG-DMG-2K of 48.5:11.1:38.9:1.5%. This nanoparticle formulation is then modified with lipid amines. In a typical example, nanoparticle formulation at a concentration of 0.18 mg/mL mRNA and a 0.56 mL volume is modified with lipid amine SA50 (467.2 nmol) prepared in buffer containing 20 mM IRIS, 14.3 mM sodium acetate, 32 g/L sucrose and 140 mM NaCl—pH 7.5 at a volumetric ratio of 1:1 of nanoparticle: buffer.
Resulting nanoparticle suspensions are filtered through a 0.8/0.2 μm capsule filter and filled into glass vials at an mRNA strength of about 0.1-1 mg/mL Biophysical data (Diameter and PDI from DLS measurements and % Encapsulation using Ribogreen assay) for luciferase mRNA nanoparticles with lipid amines is shown in Table 26.

SMILES | Zeta Potential (mV) ([1]; β-sitosterol) | Average accumulation of LNP in healthy HBE (% positive cells) (healthy HBE cells; β-sitosterol) | Average protein expression in healthy HBE (% V5 positive cells) (healthy HBE cells; β-sitosterol) | Diameter (nm) [4] | PDI [4] | % Encapsulation (Ribogreen) [4] | further results
CC(C)CCC[C@@H](C)[C@H]1CC[C@H]2[C@@H]3CC=C4C[C@@H](OC(=O)N(CCCN)CCCCNCCCN)CC[C@]4(C)[C@H]3CC[C@]12C [SA3] |  |  |  |  |  |  | Average protein expression per cell (RLU per cell) (HeLa; Cholesterol, and DMG-PEG 2K): 111.0 RLU per cell; Zeta Potential (mV) [1]: 10.6 mV; Average % V5 positive cells/total cells ([2]; Mouse Bronchi (left lung)): 9.33 % V5 positive cells/total cell; Average % V5 positive cells/total cells ([2]; Mouse Trachea): 40.7 % V5 positive cells/total cell; Average % V5 positive cells/total cells ([3]; Rat Bronchi (left and right lung)): 4.95 % V5 positive cells/total cell; Average % V5 positive cells/total cells ([3]; Rat Trachea): 2.97 % V5 positive cells/total cell; Average accumulation of LNP in healthy HBE (% positive cells) (healthy HBE cells): 43.7 % positive cells; Average protein expression in healthy HBE (% V5 positive cells) (healthy HBE cells): 9.4 % V5 positive cells
CC(C)CCC[C@@H](C)[C@H]1CC[C@H]2[C@@H]3CC=C4C[C@@H](OC(=O)NCCN(C)C)CC[C@]4(C)[C@H]3CC[C@]12C [SA4] |  |  |  |  |  |  | Average protein expression per cell (RLU per cell) (HeLa; Cholesterol, and Compound 428): 248.5 RLU per cell
CC(C)c1ccc2c(c1)CC[C@H]1[C@](C)(CNC(=O)CCN(C)C)CCC[C@]21C [SA16] |  |  |  |  |  |  | Average protein expression per cell (RLU per cell) (HeLa; Cholesterol, and Compound 428): 14.5 RLU per cell
CC(C)CCC[C@@H](C)[C@H]1CC[C@H]2[C@@H]3CC=C4C[C@@H](OC(=O)NCCNC(=N)N)CC[C@]4(C)[C@H]3CC[C@]12C [SA23] | 12.7 mV | 34.3 % positive cells | 9.1 % V5 positive cells |  |  |  | 
CC(C)CCC[C@@H](C)[C@H]1CC[C@H]2[C@@H]3CC=C4C[C@@H](OC(=O)N(CCCN)CCCCN)CC[C@]4(C)[C@H]3CC[C@]12C [SA29] | 8.3 mV | 56.2 % positive cells | 12.1 % V5 positive cells |  |  |  | 
CC(C)CCC[C@@H](C)[C@H]1CC[C@H]2[C@@H]3CC=C4C[C@@H](OC(=O)NCCCNCCCCN)CC[C@]4(C)[C@H]3CC[C@]12C [SA30] | 8.7 mV | 49.9 % positive cells | 11.9 % V5 positive cells |  |  |  | 
CC(C)CCC[C@@H](C)[C@H]1CC[C@H]2[C@@H]3CC=C4C[C@@H](OC(=O)CCC(=O)N(CCCN)CCCCN)CC[C@]4(C)[C@H]3CC[C@]12C [SA31] | 8.6 mV | 43.2 % positive cells | 11.1 % V5 positive cells |  |  |  | 
CC[C@H](CC[C@@H](C)[C@H]1CC[C@H]2[C@@H]3CC=C4C[C@@H](OC(=O)N(CCCCNCCC(C)N)CCC(C)N)CC[C@]4(C)[C@H]3CC[C@]12C)C(C)C.Cl.Cl.Cl (stereo partly drawn) [SA111, (3S,8S,9S,10R,13R,14S,17R)-17-((2R,5R)-5-ethyl-6-methylheptan-2-yl)-10,13-dimethyl-2,3,4,7,8,9,10,11,12,13,14,15,16,17-tetradecahydro-1H-cyclopenta[a]phenanthren-3-yl (3-aminobutyl)(4-((3-aminobutyl)amino)butyl)carbamate trihydrochloride] |  |  |  | 76 nm | 0.18 | 99.6% | 
CC[C@H](CC[C@@H](C)[C@H]1CC[C@H]2[C@@H]3CC=C4C[C@@H](OC(=O)N(CCC5CC(N)C5)CCC5CC(N)C5)CC[C@]4(C)[C@H]3CC[C@]12C)C(C)C.Cl.Cl (stereo partly drawn) [SA186, (3S,8S,9S,10R,13R,14S,17R)-17-((2R,5R)-5-ethyl-6-methylheptan-2-yl)-10,13-dimethyl-2,3,4,7,8,9,10,11,12,13,14,15,16,17-tetradecahydro-1H-cyclopenta[a]phenanthren-3-yl bis(2-(3-aminocyclobutyl)ethyl)carbamate dihydrochloride] |  |  |  | 73 nm | 0.14 | 99.3% | 
CC[C@H](CC[C@@H](C)[C@H]1CC[C@H]2[C@@H]3CC=C4C[C@@H](SSCCC(=O)N(CCC5CC(N)C5)CCC5CC(N)C5)CC[C@]4(C)[C@H]3CC[C@]12C)C(C)C.Cl.Cl (stereo partly drawn) [SA187, N,N-bis(2-(3-aminocyclobutyl)ethyl)-3-(((3S,8S,9S,10R,13R,14S,17R)-17-((2R,5R)-5-ethyl-6-methylheptan-2-yl)-10,13-dimethyl-2,3,4,7,8,9,10,11,12,13,14,15,16,17-tetradecahydro-1H-cyclopenta[a]phenanthren-3-yl)disulfaneyl)propanamide dihydrochloride] |  |  |  | 73 nm | 0.17 | 99.0% | 
CC(C)CCC[C@@H](C)[C@H]1CC[C@H]2[C@@H]3CC=C4C[C@@H](OC(=O)CCCC(=O)N(CCC5CC(N)C5)CCC5CC(N)C5)CC[C@]4(C)[C@H]3CC[C@]12C.Cl.Cl (stereo partly drawn) [SA188, (3S,8S,9S,10R,13R,14S,17R)-10,13-dimethyl-17-((R)-6-methylheptan-2-yl)-2,3,4,7,8,9,10,11,12,13,14,15,16,17-tetradecahydro-1H-cyclopenta[a]phenanthren-3-yl 5-(bis(2-(3-aminocyclobutyl)ethyl)amino)-5-oxopentanoate dihydrochloride] |  |  |  | 80 nm | 0.13 | 99.6% | 
CC[C@H](CC[C@@H](C)[C@H]1CC[C@H]2[C@@H]3CC=C4C[C@@H](OC(=O)N(CC56CC(N)(C5)C6)CC56CC(N)(C5)C6)CC[C@]4(C)[C@H]3CC[C@]12C)C(C)C.Cl.Cl [SA189, (3S,8S,9S,10R,13R,14S,17R)-17-((2R,5R)-5-ethyl-6-methylheptan-2-yl)-10,13-dimethyl-2,3,4,7,8,9,10,11,12,13,14,15,16,17-tetradecahydro-1H-cyclopenta[a]phenanthren-3-yl bis((3-aminobicyclo[1.1.1]pentan-1-yl)methyl)carbamate dihydrochloride] |  |  |  | 78 nm | 0.33 | 98.1% | 
